Data reported in the NIST ThermoML archive (doi:10.1021/je300692s).
Numbers after ± are expanded uncertainties.

Assay: activity coefficient (dimensionless); of the first substance listed, at infinite dilution; xn = mol fraction of the nth substance listed
Conditions: 101 kPa, Liquid, Chromatography, x1 = 0

SMILES | activity coefficient (322.6 K) | activity coefficient (332.5 K) | activity coefficient (342.8 K) | activity coefficient (323 K) | activity coefficient (333 K) | activity coefficient (343.1 K) | activity coefficient (322.9 K)
Cc1ccccc1C [1,2-dimethylbenzene] + CCCCCCCCCC[N+]1(C)CCCC1.O=S(=O)([N-]S(=O)(=O)C(F)(F)F)C(F)(F)F | 0.92 ± 0.09 | 0.94 ± 0.1 | 0.96 ± 0.1 | – | – | – | –
Cc1ccccc1C [1,2-dimethylbenzene] + CCCCCCCC[N+]1(C)CCCC1.O=S(=O)([N-]S(=O)(=O)C(F)(F)F)C(F)(F)F | – | – | – | 0.92 ± 0.09 | 0.87 ± 0.09 | 0.97 ± 0.1 | –
Cc1ccccc1C [1,2-dimethylbenzene] + CCCCCC[N+]1(C)CCCC1.O=S(=O)([N-]S(=O)(=O)C(F)(F)F)C(F)(F)F | – | – | – | – | 1.28 ± 0.13 | 1.31 ± 0.13 | 1.17 ± 0.12
Cc1cccc(C)c1 [1,3-dimethylbenzene] + CCCCCCCCCC[N+]1(C)CCCC1.O=S(=O)([N-]S(=O)(=O)C(F)(F)F)C(F)(F)F | 0.99 ± 0.1 | 1 ± 0.1 | 1.03 ± 0.1 | – | – | – | –
Cc1cccc(C)c1 [1,3-dimethylbenzene] + CCCCCCCC[N+]1(C)CCCC1.O=S(=O)([N-]S(=O)(=O)C(F)(F)F)C(F)(F)F | – | – | – | 1 ± 0.1 | 0.84 ± 0.09 | 1.05 ± 0.11 | –
Cc1cccc(C)c1 [1,3-dimethylbenzene] + CCCCCC[N+]1(C)CCCC1.O=S(=O)([N-]S(=O)(=O)C(F)(F)F)C(F)(F)F | – | – | – | – | 1.39 ± 0.14 | 1.42 ± 0.15 | 1.28 ± 0.13
Cc1ccc(C)cc1 [1,4-dimethylbenzene] + CCCCCCCCCC[N+]1(C)CCCC1.O=S(=O)([N-]S(=O)(=O)C(F)(F)F)C(F)(F)F | 1 ± 0.1 | 1.01 ± 0.1 | 1.03 ± 0.1 | – | – | – | –
Cc1ccc(C)cc1 [1,4-dimethylbenzene] + CCCCCCCC[N+]1(C)CCCC1.O=S(=O)([N-]S(=O)(=O)C(F)(F)F)C(F)(F)F | – | – | – | 1.01 ± 0.1 | 0.99 ± 0.1 | 1.05 ± 0.11 | –
Cc1ccc(C)cc1 [1,4-dimethylbenzene] + CCCCCC[N+]1(C)CCCC1.O=S(=O)([N-]S(=O)(=O)C(F)(F)F)C(F)(F)F | – | – | – | – | 1.4 ± 0.14 | 1.42 ± 0.15 | 1.35 ± 0.14
C1COCCO1 [1,4-dioxane] + CCCCCCCCCC[N+]1(C)CCCC1.O=S(=O)([N-]S(=O)(=O)C(F)(F)F)C(F)(F)F | 0.38 ± 0.05 | 0.35 ± 0.04 | 0.38 ± 0.05 | – | – | – | –
C1COCCO1 [1,4-dioxane] + CCCCCCCC[N+]1(C)CCCC1.O=S(=O)([N-]S(=O)(=O)C(F)(F)F)C(F)(F)F | – | – | – | 0.32 ± 0.04 | 0.6 ± 0.06 | 0.31 ± 0.04 | –
C1COCCO1 [1,4-dioxane] + CCCCCC[N+]1(C)CCCC1.O=S(=O)([N-]S(=O)(=O)C(F)(F)F)C(F)(F)F | – | – | – | – | 0.42 ± 0.05 | 0.44 ± 0.05 | 0.58 ± 0.06
C#CCCCCC [1-heptyne] + CCCCCCCCCC[N+]1(C)CCCC1.O=S(=O)([N-]S(=O)(=O)C(F)(F)F)C(F)(F)F | 1.81 ± 0.19 | 1.83 ± 0.19 | 1.83 ± 0.19 | – | – | – | –
C#CCCCCC [1-heptyne] + CCCCCCCC[N+]1(C)CCCC1.O=S(=O)([N-]S(=O)(=O)C(F)(F)F)C(F)(F)F | – | – | – | 1.94 ± 0.2 | 1.89 ± 0.2 | 1.9 ± 0.2 | –
C#CCCCCC [1-heptyne] + CCCCCC[N+]1(C)CCCC1.O=S(=O)([N-]S(=O)(=O)C(F)(F)F)C(F)(F)F | – | – | – | – | 2.79 ± 0.29 | 2.78 ± 0.29 | 2.24 ± 0.24
C#CCCCC [1-hexyne] + CCCCCCCCCC[N+]1(C)CCCC1.O=S(=O)([N-]S(=O)(=O)C(F)(F)F)C(F)(F)F | 1.5 ± 0.16 | 1.48 ± 0.15 | 1.47 ± 0.15 | – | – | – | –
C#CCCCC [1-hexyne] + CCCCCCCC[N+]1(C)CCCC1.O=S(=O)([N-]S(=O)(=O)C(F)(F)F)C(F)(F)F | – | – | – | 1.57 ± 0.16 | 1.58 ± 0.16 | 1.34 ± 0.14 | –
C#CCCCC [1-hexyne] + CCCCCC[N+]1(C)CCCC1.O=S(=O)([N-]S(=O)(=O)C(F)(F)F)C(F)(F)F | – | – | – | – | 2.1 ± 0.22 | 2.09 ± 0.22 | 2.1 ± 0.22
CCC[N+](=O)[O-] [1-nitropropane] + CCCCCCCCCC[N+]1(C)CCCC1.O=S(=O)([N-]S(=O)(=O)C(F)(F)F)C(F)(F)F | 0.62 ± 0.07 | 0.61 ± 0.07 | 0.6 ± 0.06 | – | – | – | –
CCC[N+](=O)[O-] [1-nitropropane] + CCCCCCCC[N+]1(C)CCCC1.O=S(=O)([N-]S(=O)(=O)C(F)(F)F)C(F)(F)F | – | – | – | 0.55 ± 0.06 | 0.52 ± 0.06 | 0.51 ± 0.06 | –
CCC[N+](=O)[O-] [1-nitropropane] + CCCCCC[N+]1(C)CCCC1.O=S(=O)([N-]S(=O)(=O)C(F)(F)F)C(F)(F)F | – | – | – | – | 0.66 ± 0.07 | 0.65 ± 0.07 | 0.66 ± 0.07
CC(C)CO [2-methyl-1-propanol] + CCCCCCCCCC[N+]1(C)CCCC1.O=S(=O)([N-]S(=O)(=O)C(F)(F)F)C(F)(F)F | 1.7 ± 0.18 | 1.53 ± 0.16 | 1.39 ± 0.14 | – | – | – | –

SMILES | activity coefficient (322.6 K) | activity coefficient (332.5 K) | activity coefficient (342.8 K) | activity coefficient (323 K) | activity coefficient (333 K) | activity coefficient (343.1 K) | activity coefficient (322.9 K)
CC(C)CO [2-methyl-1-propanol] + CCCCCCCC[N+]1(C)CCCC1.O=S(=O)([N-]S(=O)(=O)C(F)(F)F)C(F)(F)F | – | – | – | 1.59 ± 0.17 | 1.44 ± 0.15 | 1.22 ± 0.13 | –
CC(C)CO [2-methyl-1-propanol] + CCCCCC[N+]1(C)CCCC1.O=S(=O)([N-]S(=O)(=O)C(F)(F)F)C(F)(F)F | – | – | – | – | 2.67 ± 0.16 | 1.65 ± 0.1 | 1.87 ± 0.11
CCC(C)CC [3-methylpentane] + CCCCCCCCCC[N+]1(C)CCCC1.O=S(=O)([N-]S(=O)(=O)C(F)(F)F)C(F)(F)F | 3.65 ± 0.38 | 3.36 ± 0.35 | 3.4 ± 0.36 | – | – | – | –
CCC(C)CC [3-methylpentane] + CCCCCCCC[N+]1(C)CCCC1.O=S(=O)([N-]S(=O)(=O)C(F)(F)F)C(F)(F)F | – | – | – | 4.61 ± 0.48 | 4.52 ± 0.47 | 4.08 ± 0.43 | –
CCC(C)CC [3-methylpentane] + CCCCCC[N+]1(C)CCCC1.O=S(=O)([N-]S(=O)(=O)C(F)(F)F)C(F)(F)F | – | – | – | – | 6.46 ± 0.68 | 6.37 ± 0.67 | 6.52 ± 0.69
CC#N [acetonitrile] + CCCCCCCCCC[N+]1(C)CCCC1.O=S(=O)([N-]S(=O)(=O)C(F)(F)F)C(F)(F)F | 0.49 ± 0.05 | 0.5 ± 0.06 | 0.49 ± 0.05 | – | – | – | –
CC#N [acetonitrile] + CCCCCCCC[N+]1(C)CCCC1.O=S(=O)([N-]S(=O)(=O)C(F)(F)F)C(F)(F)F | – | – | – | 0.43 ± 0.05 | 0.39 ± 0.05 | 0.37 ± 0.04 | –
CC#N [acetonitrile] + CCCCCC[N+]1(C)CCCC1.O=S(=O)([N-]S(=O)(=O)C(F)(F)F)C(F)(F)F | – | – | – | – | 0.46 ± 0.05 | 0.48 ± 0.05 | 0.46 ± 0.05
c1ccccc1 [benzene] + CCCCCCCCCC[N+]1(C)CCCC1.O=S(=O)([N-]S(=O)(=O)C(F)(F)F)C(F)(F)F | 0.62 ± 0.07 | 0.63 ± 0.07 | 0.64 ± 0.07 | – | – | – | –
c1ccccc1 [benzene] + CCCCCCCC[N+]1(C)CCCC1.O=S(=O)([N-]S(=O)(=O)C(F)(F)F)C(F)(F)F | – | – | – | 0.6 ± 0.06 | 0.62 ± 0.07 | 0.61 ± 0.07 | –
c1ccccc1 [benzene] + CCCCCC[N+]1(C)CCCC1.O=S(=O)([N-]S(=O)(=O)C(F)(F)F)C(F)(F)F | – | – | – | – | 0.77 ± 0.08 | 0.78 ± 0.08 | 0.76 ± 0.08
CCCCO [butan-1-ol] + CCCCCCCCCC[N+]1(C)CCCC1.O=S(=O)([N-]S(=O)(=O)C(F)(F)F)C(F)(F)F | 2.2 ± 0.23 | 1.85 ± 0.19 | 1.64 ± 0.17 | – | – | – | –
CCCCO [butan-1-ol] + CCCCCC[N+]1(C)CCCC1.O=S(=O)([N-]S(=O)(=O)C(F)(F)F)C(F)(F)F | – | – | – | – | 2.86 ± 0.3 | 2.04 ± 0.21 | 2.28 ± 0.24
CCC(C)=O [butanone] + CCCCCCCCCC[N+]1(C)CCCC1.O=S(=O)([N-]S(=O)(=O)C(F)(F)F)C(F)(F)F | 0.39 ± 0.05 | 0.37 ± 0.04 | 0.34 ± 0.04 | – | – | – | –
CCC(C)=O [butanone] + CCCCCCCC[N+]1(C)CCCC1.O=S(=O)([N-]S(=O)(=O)C(F)(F)F)C(F)(F)F | – | – | – | 0.36 ± 0.04 | 0.34 ± 0.04 | 0.31 ± 0.04 | –
CCC(C)=O [butanone] + CCCCCC[N+]1(C)CCCC1.O=S(=O)([N-]S(=O)(=O)C(F)(F)F)C(F)(F)F | – | – | – | – | 0.42 ± 0.05 | 0.39 ± 0.05 | 0.42 ± 0.05
C1CCCCCC1 [cycloheptane] + CCCCCCCCCC[N+]1(C)CCCC1.O=S(=O)([N-]S(=O)(=O)C(F)(F)F)C(F)(F)F | 7 ± 0.74 | 9.72 ± 1 | 13.3 ± 1.4 | – | – | – | –
C1CCCCCC1 [cycloheptane] + CCCCCCCC[N+]1(C)CCCC1.O=S(=O)([N-]S(=O)(=O)C(F)(F)F)C(F)(F)F | – | – | – | 8.62 ± 0.91 | 12.1 ± 1.3 | 15.4 ± 1.6 | –
C1CCCCCC1 [cycloheptane] + CCCCCC[N+]1(C)CCCC1.O=S(=O)([N-]S(=O)(=O)C(F)(F)F)C(F)(F)F | – | – | – | – | 19 ± 2 | 25.1 ± 2.6 | 14 ± 1.5
C1CCCCC1 [cyclohexane] + CCCCCCCCCC[N+]1(C)CCCC1.O=S(=O)([N-]S(=O)(=O)C(F)(F)F)C(F)(F)F | 2.81 ± 0.3 | 2.71 ± 0.28 | 2.62 ± 0.28 | – | – | – | –
C1CCCCC1 [cyclohexane] + CCCCCCCC[N+]1(C)CCCC1.O=S(=O)([N-]S(=O)(=O)C(F)(F)F)C(F)(F)F | – | – | – | 3.45 ± 0.36 | 3.31 ± 0.35 | 3.06 ± 0.32 | –
C1CCCCC1 [cyclohexane] + CCCCCC[N+]1(C)CCCC1.O=S(=O)([N-]S(=O)(=O)C(F)(F)F)C(F)(F)F | – | – | – | – | 4.64 ± 0.49 | 4.67 ± 0.49 | 5.16 ± 0.54
